Laboratory results as given in ChEMBL document CHEMBL5528002, “Identification of selective 5-LOX and FLAP inhibitors as novel anti-inflammatory agents by ligand-based virtual screening” (Eur J Med Chem, 2024).
Activity calls are given as the source filed them. No cut-off for these calls is given here.

Columns and labels:
[1] = biological target: T1, Prostaglandin E synthase (Homo sapiens) (UniProt O14684); test: Inhibition of human mPGES-1 assessed as enzyme remaining activity at 10 uM relative to control
T1 sequence (whole entry): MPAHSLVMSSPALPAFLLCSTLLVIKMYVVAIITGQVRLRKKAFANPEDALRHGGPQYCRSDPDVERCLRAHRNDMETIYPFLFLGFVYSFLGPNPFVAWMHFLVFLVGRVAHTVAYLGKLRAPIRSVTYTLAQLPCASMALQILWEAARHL

[2] = biological target: T2, Polyunsaturated fatty acid 5-lipoxygenase (Homo sapiens) (UniProt P09917); test: Inhibition of human recombinant 5-LOX expressed in Escherichia coli BL21(DE3) assessed as enzyme remaining activity at 10 uM using arachidonic acid as substrate preincubated with compound for 15 mins followed by substrate and CaCl2 addition measured after 10 mins by RP-HPLC analysis relative to control; conditions: time 25.0 min
T2 sequence (whole entry): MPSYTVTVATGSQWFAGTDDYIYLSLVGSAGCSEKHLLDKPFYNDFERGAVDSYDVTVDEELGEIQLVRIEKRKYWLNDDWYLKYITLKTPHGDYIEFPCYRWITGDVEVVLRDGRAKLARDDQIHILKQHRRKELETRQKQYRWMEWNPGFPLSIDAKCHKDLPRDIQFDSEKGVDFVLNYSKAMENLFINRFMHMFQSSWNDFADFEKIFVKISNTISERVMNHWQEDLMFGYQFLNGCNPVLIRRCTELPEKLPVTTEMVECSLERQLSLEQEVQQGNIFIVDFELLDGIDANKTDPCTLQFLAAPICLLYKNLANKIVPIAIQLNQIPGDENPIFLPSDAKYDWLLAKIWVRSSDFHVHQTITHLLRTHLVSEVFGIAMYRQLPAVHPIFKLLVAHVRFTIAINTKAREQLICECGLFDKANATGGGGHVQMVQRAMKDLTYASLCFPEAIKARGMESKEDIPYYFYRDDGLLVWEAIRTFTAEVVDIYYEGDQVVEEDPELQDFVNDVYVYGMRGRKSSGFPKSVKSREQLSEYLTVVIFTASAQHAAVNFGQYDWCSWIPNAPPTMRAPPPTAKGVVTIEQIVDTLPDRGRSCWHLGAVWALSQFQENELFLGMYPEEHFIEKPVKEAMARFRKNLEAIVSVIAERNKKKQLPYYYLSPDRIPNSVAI

[3] = biological target: T3, Bifunctional epoxide hydrolase 2 (Homo sapiens) (UniProt P34913); test: Inhibition of human sEH at 10 uM relative to control
T3 sequence (whole entry): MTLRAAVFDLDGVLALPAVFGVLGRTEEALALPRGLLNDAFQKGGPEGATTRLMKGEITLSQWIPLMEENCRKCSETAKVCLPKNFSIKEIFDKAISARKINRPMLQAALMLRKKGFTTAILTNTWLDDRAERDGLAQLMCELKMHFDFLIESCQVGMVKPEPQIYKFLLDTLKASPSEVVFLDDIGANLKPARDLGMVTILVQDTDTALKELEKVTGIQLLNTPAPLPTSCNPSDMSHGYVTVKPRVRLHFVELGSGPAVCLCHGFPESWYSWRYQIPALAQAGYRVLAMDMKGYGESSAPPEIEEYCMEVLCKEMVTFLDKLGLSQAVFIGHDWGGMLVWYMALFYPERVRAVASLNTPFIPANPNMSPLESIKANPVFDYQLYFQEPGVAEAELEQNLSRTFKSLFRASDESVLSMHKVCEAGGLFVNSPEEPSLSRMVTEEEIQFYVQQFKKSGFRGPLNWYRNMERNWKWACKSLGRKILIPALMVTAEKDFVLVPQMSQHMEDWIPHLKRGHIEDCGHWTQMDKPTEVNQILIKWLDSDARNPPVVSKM

[4] = biological target: T2, Polyunsaturated fatty acid 5-lipoxygenase (Homo sapiens); test: Inhibition of 5-LOX in human Neutrophil assessed as enzyme remaining activity at 10 uM using arachidonic acid as substrate preincubated with compound for 15 mins followed by substrate and A23187 addition measured after 10 mins by RP-HPLC analysis relative to control; format: cell-based; conditions: time 25.0 min
[5] = biological target: T2, Polyunsaturated fatty acid 5-lipoxygenase (Homo sapiens); test: Inhibition of 5-LOX in human Neutrophil at 10 uM preincubated with compound for 15 mins followed by A23187 addition measured after 10 mins by RP-HPLC analysis relative to control; format: cell-based; conditions: time 25.0 min
[6] = biological target: T3, Bifunctional epoxide hydrolase 2 (Homo sapiens); test: Inhibition of human sEH assessed as enzyme remaining activity at 10 uM relative to control
[7] = biological target: T1, Prostaglandin E synthase (Homo sapiens); test: Inhibition of human mPGES-1 at 10 uM relative to control
[8] = biological target: T2, Polyunsaturated fatty acid 5-lipoxygenase (Homo sapiens); test: Inhibition of 5-LOX in human Neutrophil assessed as enzyme remaining activity at 10 uM preincubated with compound for 15 mins followed by A23187 addition measured after 10 mins by RP-HPLC analysis relative to control; format: cell-based; conditions: time 25.0 min

Structure (SMILES)	Activity [1] [%]	Activity [2] [%]	inhibition [3] [%]	Activity [4] [%]	inhibition [5]	Activity [6] [%]	inhibition [7]	Activity [8] [%]
NS(=O)(=O)c1ccc(NCc2cnc3ccccc3c2)cc1	86.3	96.5	> 35	95.3	inactive	112	inactive	90.6
CC1CCc2c(c(CC3CC(=O)NC(=O)C3)nn2-c2ccccc2)C1 (stereo not given)	89.6	91.7	> 35	101	inactive	86.2	inactive	95.6
O=C1C(=O)C(CCc2ccccc2)C(=O)/C1=C/c1ccccc1 (stereo not given)	27.4	110	> 35	80.6	inactive	101	> 50%	105
O=C(/C=C/c1ccccc1)CCc1c(O)c2ccccc2oc1=O	52.6	67.6	> 35	60.1	inactive	108	< 40%	47.6
Cc1ccn(C(=O)C2=Cc3ccccc3OC2)c(=N)c1	84.3		> 35		inactive	121	inactive	
O=C1Nc2ccccc2/C1=N/NS(=O)(=O)c1ccc(C(=O)O)cc1	94.2	105	> 35	88.2	inactive	111	inactive	93.1
Cc1cc(=O)oc(C)c1C(=O)Oc1ccc2ccccc2c1	88.2	91.1	> 35	79.5	inactive	75.7	inactive	87.9
Cc1ccc(Nc2nnc(-c3ccc4c(c3)OCO4)o2)c(C)c1	57.9	14	> 35	69.8	inactive	90.6	< 40%	106
O=C1C(C(O)c2ccccc2)CCCC1C(O)c1ccccc1 (stereo not given)	81.1	103	> 35	77.9	inactive	132	inactive	152
O=C1CCC(CCc2nc3ccccc3[nH]2)(c2ccccc2)C(=O)N1 (stereo not given)	92.7	106	> 35	110	inactive	98.7	inactive	102
O=C(/C=C/c1ccccc1)NCCC1(O)C(=O)Nc2ccccc21 (stereo not given)	98.2		> 35		inactive	88.2	inactive	
CC(=O)c1cccc(NC(=O)Oc2ccc3c(C)cc(=O)oc3c2)c1	93.4	115	> 35	106	inactive	196	inactive	104
O=C1c2ccccc2C(=O)N1CCc1nc(-c2ccccc2)c[nH]1	92.5	90.4	58	99.2	inactive	41.5	inactive	100
N=c1c2c(ncn1Cc1ccccc1)CCN(Cc1ccccc1)C2	93.9	96.2	> 35	80.1	inactive	91.6	inactive	82.3
N=c1[nH]nc2nc(CC(=O)c3ccc4ccccc4c3)c(=O)[nH]n12			> 35		inactive		inactive	
CC(=O)NC(CC(=O)Nc1cccc2c1Cc1ccccc1-2)C(=O)O (stereo not given)	96.3	107	> 35	102	inactive	81	inactive	94.2
O=C(NCc1ccco1)Nc1cccc(-c2ccccc2)c1	88.1	96.4	> 35	92.4	inactive	91.4	inactive	97
O=C(O)c1cnc2cc(OCCc3ccc(F)cc3)ccc2c1O	75.9	66.9	> 35	87.6	inactive	72.5	inactive	89.1
O=C(c1nc2ccc(Cl)cc2nc1O)C(O)c1ccc2c(c1)OCO2 (stereo not given)	89.4	81.2	> 35	90.7	inactive	93.8	inactive	101
O=C(O)c1ccccc1C(=O)OC1CCc2ccccc2C1 (stereo not given)	86.5	110	> 35	103	inactive	87.4	inactive	105
CC(=O)c1cccc2cc(CC(=O)c3ccccc3)c(=O)oc12	59	105	> 35	94.9	inactive	79.7	< 40%	81.6
O=C1C/C(=C/c2cccc(OCc3ccccc3)c2)C(=O)N1	83.1	94.4	> 35	67.1	inactive	128	inactive	112
O=C(c1ccc2ccccc2n1)C(O)c1ccc2ccccc2n1 (stereo not given)		99.8	> 35	99.6	inactive		inactive	111
N=C(N)/N=C(/C=C/c1ccccc1)CC1OC(=O)c2ccccc21 (stereo not given)	40.9	58.3	> 35	68	inactive	92.9	> 50%	85.5
CC(=O)c1ccc(NCN2C(=O)c3ccccc3C2=O)cc1	47.6	97.2	> 35	91.8	inactive	102	> 50%	72.8
NNC(=O)CCc1ccc2ccc3ccccc3c2c1	80.5	75.1	> 35	93.1	inactive	92.9	inactive	80.2
O=C(O)c1cc(O)c2cc(Cc3ccccc3)ccc2n1	98.3		> 35		inactive	147	inactive	
